# Measured values reported in US20090306147A1, “BIOLOGICAL EFFICACY OF AGROCHEMICAL COMPOSITIONS ON APPLICATION IN THE GROWTH SUBSTRATE SUITABLE FORMULATIONS AND USE THEREOF” (priority 2006, published 2009).
# Tests used:
# Type in all cases: in vivo
# [1] = tested on: diamond-back moth (Plutella xylostella); test: Watering test on cabbage plant, diamond-back moth caterpillars (Use Example 4); settings: infection 1 d after application, 7 d after infection
# Procedure: (§1) After sowing, a cabbage plant (Brassica oleracea) is grown for about 14 days in a 1 litre vessel. The plant is then watered with 60 ml of a solution having the stated concentration of insecticidally active compound and adjuvant and, after the stated period of time, infected with the caterpillars of the diamond-back moth (Plutella xylostella). After the desired period of time, the kill in % is determined. 100% means that all caterpillars have been killed; 0% means that none of the caterpillars have been killed. The same test without added adjuvant served as a control.
# [2] = tested on: green peach aphid (Myzus persicae); test: Watering test on bell-pepper plant, green peach aphid (Use Example 3)
# Procedure: as §1, with “bell-pepper” for “cabbage”, “plant” for “plant (Brassica oleracea)”, “30” for “14”, “green peach aphid (Myzus persicae).” for “caterpillars of the diamond-back moth (Plutella xylostella).”, “aphids” for “caterpillars”
# [3] = tested on: green peach aphid (Myzus persicae); test: Watering test on cabbage plant, green peach aphid (Use Example 5); settings: infection 3 d after application, 7 d after infection
# Procedure: as §1, with “10” for “14”, “green peach aphid (Myzus persicae).” for “caterpillars of the diamond-back moth (Plutella xylostella).”, “aphids” for “caterpillars”
smiles,measurement,setting,value
"N#Cc1nn(-c2c(Cl)cc(C(F)(F)F)cc2Cl)c(N)c1[S+]([O-])C(F)(F)F (centres unmarked) [(VI-1), fipronil]",Mortality,"[1]; 1 mg/l of soil, adjuvant (I-3) 1000 mg/l",B (from 26 to 50%)
same,Mortality,"[1]; 1 mg/l of soil, adjuvant (I-5) 1000 mg/l",C (from 51 to 75%)
same,Mortality,"[1]; 1 mg/l of soil, no adjuvant",A (from 0 to 25%)
same,Mortality,"[1]; 5 mg/l of soil, adjuvant (I-3) 1000 mg/l",D (from 76 to 100)
same,Mortality,"[1]; 5 mg/l of soil, no adjuvant",C (from 51 to 75%)
CN(Cc1ccc(Cl)nc1)C1=CC(=O)OC1 [(IV-1)],Mortality,"[2]; 0.0156 mg/l of soil, adjuvant (I-3) 2000 mg/l, infection 13 d after application, 5 d after infection",D (from 76 to 100)
same,Mortality,"[2]; 0.0156 mg/l of soil, adjuvant (I-3) 2000 mg/l, infection 13 d after application, 7 d after infection",D (from 76 to 100)
same,Mortality,"[2]; 0.0156 mg/l of soil, adjuvant (I-5) 2000 mg/l, infection 13 d after application, 5 d after infection",D (from 76 to 100)
same,Mortality,"[2]; 0.0156 mg/l of soil, adjuvant (I-5) 2000 mg/l, infection 13 d after application, 7 d after infection",D (from 76 to 100)
same,Mortality,"[2]; 0.0156 mg/l of soil, no adjuvant, infection 13 d after application, 5 d after infection",C (from 51 to 75%)
same,Mortality,"[2]; 0.0156 mg/l of soil, no adjuvant, infection 13 d after application, 7 d after infection",C (from 51 to 75%)
same,Mortality,"[2]; 0.0313 mg/l of soil, adjuvant (I-3) 2000 mg/l, infection 7 d after application, 4 d after infection",D (from 76 to 100)
same,Mortality,"[2]; 0.0313 mg/l of soil, adjuvant (I-3) 2000 mg/l, infection 7 d after application, 6 d after infection",D (from 76 to 100)
same,Mortality,"[2]; 0.0313 mg/l of soil, adjuvant (I-5) 2000 mg/l, infection 7 d after application, 4 d after infection",D (from 76 to 100)
same,Mortality,"[2]; 0.0313 mg/l of soil, adjuvant (I-5) 2000 mg/l, infection 7 d after application, 6 d after infection",D (from 76 to 100)
same,Mortality,"[2]; 0.0313 mg/l of soil, no adjuvant, infection 7 d after application, 4 d after infection",C (from 51 to 75%)
same,Mortality,"[2]; 0.0313 mg/l of soil, no adjuvant, infection 7 d after application, 6 d after infection",C (from 51 to 75%)
CCOC(=O)OC1=C(c2cc(C)ccc2C)C(=O)NC12CCC(OC)CC2 (centres unmarked) [(V-3)],Mortality,"[2]; 2 mg/l of soil, adjuvant (I-5) 1000 mg/l, infection 3 d after application, 7 d after infection",C (from 51 to 75%)
same,Mortality,"[2]; 2 mg/l of soil, adjuvant (I-5) 1000 mg/l, infection 5 d after application, 7 d after infection",C (from 51 to 75%)
same,Mortality,"[2]; 2 mg/l of soil, no adjuvant, infection 3 d after application, 7 d after infection",B (from 26 to 50%)
same,Mortality,"[2]; 2 mg/l of soil, no adjuvant, infection 5 d after application, 7 d after infection",B (from 26 to 50%)
"O=[N+]([O-])NC1=NCCN1Cc1ccc(Cl)nc1 [(II-7), imidacloprid]",Mortality,"[2]; 0.0039 mg/l of soil, adjuvant (I-2) 1000 mg/l, infection 3 d after application, 7 d after infection",D (from 76 to 100)
same,Mortality,"[2]; 0.0039 mg/l of soil, adjuvant (I-3) 2000 mg/l watering solution, infection 3 d after application, 4 d after infection",D (from 76 to 100)
same,Mortality,"[2]; 0.0039 mg/l of soil, adjuvant (I-3) 2000 mg/l, infection 3 d after application, 7 d after infection",D (from 76 to 100)
same,Mortality,"[2]; 0.0039 mg/l of soil, adjuvant (I-3) 2000 mg/l, infection 21 d after application, 4 d after infection",D (from 76 to 100)
same,Mortality,"[2]; 0.0039 mg/l of soil, adjuvant (I-3) 2000 mg/l, infection 21 d after application, 7 d after infection",D (from 76 to 100)
same,Mortality,"[2]; 0.0039 mg/l of soil, adjuvant (I-5) 2000 mg/l watering solution, infection 3 d after application, 4 d after infection",D (from 76 to 100)
same,Mortality,"[2]; 0.0039 mg/l of soil, adjuvant (I-5) 2000 mg/l, infection 3 d after application, 7 d after infection",D (from 76 to 100)
same,Mortality,"[2]; 0.0039 mg/l of soil, adjuvant (I-5) 2000 mg/l, infection 21 d after application, 4 d after infection",D (from 76 to 100)
same,Mortality,"[2]; 0.0039 mg/l of soil, adjuvant (I-5) 2000 mg/l, infection 21 d after application, 7 d after infection",D (from 76 to 100)
same,Mortality,"[2]; 0.0039 mg/l of soil, no adjuvant, infection 3 d after application, 4 d after infection",B (from 26 to 50%)
same,Mortality,"[2]; 0.0039 mg/l of soil, no adjuvant, infection 3 d after application, 7 d after infection",C (from 51 to 75%)
same,Mortality,"[2]; 0.0039 mg/l of soil, no adjuvant, infection 21 d after application, 4 d after infection",C (from 51 to 75%)
same,Mortality,"[2]; 0.0039 mg/l of soil, no adjuvant, infection 21 d after application, 7 d after infection",C (from 51 to 75%)
same,Mortality,"[3]; 0.00195 mg/l of soil, adjuvant (I-2) 1000 mg/l",B (from 26 to 50%)
same,Mortality,"[3]; 0.00195 mg/l of soil, no adjuvant",A (from 0 to 25%)
same,Mortality,"[3]; 0.0039 mg/l of soil, adjuvant (I-2) 1000 mg/l",C (from 51 to 75%)
same,Mortality,"[3]; 0.0039 mg/l of soil, no adjuvant",B (from 26 to 50%)
